In patent US20260355196A1, “INHIBITORS AND DEGRADERS OF PIP4K PROTEIN” (Larkspur Biosciences, Inc., priority 2023, published 2026) one finds DC50 data, which are given here for 17 compounds.

The test deals with T1, PIP4K2C (Homo sapiens, UniProt Q8TBX8).
T1 sequence (Q8TBX8 1-421): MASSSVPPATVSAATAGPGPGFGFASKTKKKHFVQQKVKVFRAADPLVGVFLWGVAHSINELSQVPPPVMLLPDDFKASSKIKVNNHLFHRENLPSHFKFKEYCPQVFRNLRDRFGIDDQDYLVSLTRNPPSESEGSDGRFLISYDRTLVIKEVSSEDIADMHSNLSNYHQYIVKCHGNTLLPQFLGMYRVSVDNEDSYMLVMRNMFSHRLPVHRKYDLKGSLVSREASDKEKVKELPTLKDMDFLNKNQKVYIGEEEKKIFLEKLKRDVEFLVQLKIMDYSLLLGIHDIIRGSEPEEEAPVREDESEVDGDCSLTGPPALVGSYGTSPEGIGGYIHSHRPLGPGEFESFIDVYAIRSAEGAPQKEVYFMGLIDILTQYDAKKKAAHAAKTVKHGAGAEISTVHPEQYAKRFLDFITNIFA
Briefly: HiBiT PIP4K2C degradation assay in MOLT-4 cells (endogenous PIP4K2C C-terminally tagged with HiBiT). Further details: untagged in primary human PBMCs and monocyte-derived dendritic cells. Type of test: cell-based. As to conditions: 6 hours of incubation time, rather than 24 hours; MOLT-4, top concentration 10 micromolar; read-out: HiBIT-degradation MOLT4 PIP4k2C DC50 (6 hours, marked *). The procedure, abridged: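 DC50 derived by Hill fit of luminescence from Nano-Glo HiBiT lytic detection. Cells were HiBiT knock-in MOLT-4 (C-terminal tag on endogenous PIP4K2C), exposed 6 h or 24 h at 37 C to compound, top concentration 10 micromolar, 3-fold steps, 10 points, duplicates.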
Background: HiBiT is a short tag that completes a luciferase, so light tracks the accessible tagged protein.
As for `O=C1CCC(Nc2ccc(N3CCC(N4CCC(C(=O)N[C@H]5CC[C@H](Nc6ncc(F)c(-c7cccc(N8CCCCC8)c7)n6)CC5)CC4)C(F)C3)c(F)c2)C(=O)N1` (some centres unmarked) [Compound 523, 1′-(4-((2,6-dioxopiperidin-3-yl)amino)-2-fluorophenyl)-3′-fluoro-N-((1r,4r)-4-((5-fluoro-4-(3-(piperidin-1-yl)phenyl)pyrimidin-2-yl)amino)cyclohexyl)-[1,4′-bipiperidine]-4-carboxamide], the DC50 was < 500 nM.
In the case of `O=C1CCC(Nc2ccc(N3CCC(N4CCC(C(=O)N[C@H]5CC[C@H](Nc6ncc(F)c(-c7cccc(N8CCCCC8=O)c7)n6)CC5)CC4)C(F)C3)c(F)c2)C(=O)N1` (some centres unmarked) [Compound 524, 1′-(4-((2,6-dioxopiperidin-3-yl)amino)-2-fluorophenyl)-3′-fluoro-N-((1r,4r)-4-((5-fluoro-4-(3-(2-oxopiperidin-1-yl)phenyl)pyrimidin-2-yl)amino)cyclohexyl)-[1,4′-bipiperidine]-4-carboxamide], the DC50 was < 500 nM.
Next, `O=C1CCC(Nc2ccc(N3CCC(N4CCC(C(=O)N[C@H]5CC[C@H](Nc6ncc(F)c(-c7cccc(N8CCCOC8=O)c7)n6)CC5)CC4)C(F)C3)c(F)c2)C(=O)N1` (some centres unmarked) [Compound 525, 1′-(4-((2,6-dioxopiperidin-3-yl)amino)-2-fluorophenyl)-3′-fluoro-N-((1r,4r)-4-((5-fluoro-4-(3-(2-oxo-1,3-oxazinan-3-yl)phenyl)pyrimidin-2-yl)amino)cyclohexyl)-[1,4′-bipiperidine]-4-carboxamide]: < 500 nM; `O=C1CCC(Nc2ccc(N3CCC(N4CCC(C(=O)N[C@H]5CC[C@H](Nc6ncc(F)c(-c7cccc(N8CCOCC8=O)c7)n6)CC5)CC4)C(F)C3)c(F)c2)C(=O)N1` (some centres unmarked) [Compound 526, 1′-(4-((2,6-dioxopiperidin-3-yl)amino)-2-fluorophenyl)-3′-fluoro-N-((1r,4r)-4-((5-fluoro-4-(3-(3-oxomorpholino)phenyl)pyrimidin-2-yl)amino)cyclohexyl)-[1,4′-bipiperidine]-4-carboxamide]: < 500 nM; `O=C1CCC(Nc2ccc(N3CCN([C@H]4CC[C@H](NC(=O)[C@H]5CC[C@H](Nc6ncc(F)c(-c7cccc(N8CCCCC8)c7)n6)CC5)CC4)CC3)c(F)c2)C(=O)N1` (stereo partly drawn) [Compound 527, trans-(1r,4R)—N-((1r,4R)-4-(4-(4-((2,6-dioxopiperidin-3-yl)amino)-2-fluorophenyl)piperazin-1-yl)cyclohexyl)-4-((5-fluoro-4-(3-(piperidin-1-yl)phenyl)pyrimidin-2-yl)amino)cyclohexane-1-carboxamide]: < 500 nM.
Next, `O=C1CCC(Nc2ccc(N3CCN(CC4(F)CCN(C(=O)[C@H]5CC[C@H](Nc6ncc(F)c(-c7cccc(-n8ccccc8=O)c7)n6)CC5)CC4)CC3)c(F)c2)C(=O)N1` (stereo partly drawn) [Compound 528, trans-3-((3-fluoro-4-(4-((4-fluoro-1-(4-((5-fluoro-4-(3-(2-oxopyridin-1(2H)-yl)phenyl)pyrimidin-2-yl)amino)cyclohexane-1-carbonyl)piperidin-4-yl)methyl)piperazin-1-yl)phenyl)amino)piperidine-2,6-dione]: < 500 nM.
Next, `O=C1CCC(Nc2ccc(N3CCN(CC4(F)CCN(C(=O)[C@H]5CC[C@H](Nc6ncc(F)c(-c7cccc(C8CC8)c7)n6)CC5)CC4)CC3)c(F)c2)C(=O)N1` (stereo partly drawn) [Compound 529, trans-3-((4-(4-((1-((1r,4r)-4-((4-(3-cyclopropylphenyl)-5-fluoropyrimidin-2-yl)amino)cyclohexane-1-carbonyl)-4-fluoropiperidin-4-yl)methyl)piperazin-1-yl)-3-fluorophenyl)amino)piperidine-2,6-dione]: < 500 nM; `O=C1CCC(Nc2ccc(N3CCN(CC4(F)CCN(C(=O)[C@H]5CC[C@H](Nc6ncc(F)c(-c7cccc(N8CCOCC8=O)c7)n6)CC5)CC4)CC3)c(F)c2)C(=O)N1` (stereo partly drawn) [Compound 530, trans-3-((3-fluoro-4-(4-((4-fluoro-1-(4-((5-fluoro-4-(3-(3-oxomorpholino)phenyl)pyrimidin-2-yl)amino)cyclohexane-1-carbonyl)piperidin-4-yl)methyl)piperazin-1-yl)phenyl)amino)piperidine-2,6-dione]: < 500 nM; `O=C1CCC(Nc2ccc(N3CCC(N4CCC(NC(=O)[C@H]5CC[C@H](Nc6ncc(F)c(-c7cccc(N8CCCCC8)c7)n6)CC5)CC4)CC3)c(F)c2)C(=O)N1` (stereo partly drawn) [Compound 531, trans-N-(1′-(4-((2,6-dioxopiperidin-3-yl)amino)-2-fluorophenyl)-[1,4′-bipiperidin]-4-yl)-4-((5-fluoro-4-(3-(piperidin-1-yl)phenyl)pyrimidin-2-yl)amino)cyclohexane-1-carboxamide]: < 500 nM.
For the compound `O=C1CCC(Nc2ccc(N3CCC(N4CCC(NC(=O)[C@H]5CC[C@H](Nc6ncc(F)c(-c7cccc(N8CCOCC8=O)c7)n6)CC5)CC4)CC3)c(F)c2)C(=O)N1` (stereo partly drawn) [Compound 532, trans-N-(1′-(4-((2,6-dioxopiperidin-3-yl)amino)-2-fluorophenyl)-[1,4′-bipiperidin]-4-yl)-4-((5-fluoro-4-(3-(3-oxomorpholino)phenyl)pyrimidin-2-yl)amino)cyclohexane-1-carboxamide], the DC50 is < 500 nM.
For the compound `O=C1CCC(Nc2ccc(N3CCC(N4CCC(NC(=O)[C@H]5CC[C@H](Nc6ncc(F)c(-c7cccc(C8CC8)c7)n6)CC5)CC4)CC3)c(F)c2)C(=O)N1` (stereo partly drawn) [Compound 533, trans-4-((4-(3-cyclopropylphenyl)-5-fluoropyrimidin-2-yl)amino)-N-(1′-(4-((2,6-dioxopiperidin-3-yl)amino)-2-fluorophenyl)-[1,4′-bipiperidin]-4-yl)cyclohexane-1-carboxamide], the DC50 is < 500 nM.
Then `Cn1nc(C2CCC(=O)NC2=O)c2ccc(C3CCN(C[C@H]4CC[C@H](C(=O)N[C@H]5CC[C@H](Nc6ncc(F)c(-c7cccc(-n8ccccc8=O)c7)n6)CC5)CC4)CC3)cc21` (stereo partly drawn) [Compound 535, trans-(1r,4R)-4-((4-(3-(2,6-dioxopiperidin-3-yl)-1-methyl-1H-indazol-6-yl)piperidin-1-yl)methyl)-N-((1r,4R)-4-((5-fluoro-4-(3-(2-oxopyridin-1 (2H)-yl)phenyl)pyrimidin-2-yl)amino)cyclohexyl)cyclohexane-1-carboxamide], with < 500 nM; and `O=C1CCC(Nc2ccc(N3CCN([C@H]4CC[C@H](C(=O)N[C@H]5CC[C@H](Nc6ncc(F)c(-c7cccc(N8CCOCC8=O)c7)n6)CC5)CC4)CC3)c(F)c2)C(=O)N1` (stereo partly drawn) [Compound 536, trans-4-(4-(4-((2,6-dioxopiperidin-3-yl)amino)-2-fluorophenyl)piperazin-1-yl)-N-(trans-4-((5-fluoro-4-(3-(3-oxomorpholino)phenyl)pyrimidin-2-yl)amino)cyclohexyl)cyclohexane-1-carboxamide], with < 500 nM.
Next, `O=C1CCC(Nc2ccc(N3CCN([C@H]4CC[C@H](C(=O)N[C@H]5CC[C@H](Nc6ncc(F)c(-c7cccc(C(=O)N8CC[C@H](O)C8)c7)n6)CC5)CC4)CC3)c(F)c2)C(=O)N1` (stereo partly drawn) [Compound 537, trans-4-(4-(4-((2,6-dioxopiperidin-3-yl)amino)-2-fluorophenyl)piperazin-1-yl)-N-(trans-4-((5-fluoro-4-(3-((S)-3-hydroxypyrrolidine-1-carbonyl)phenyl)pyrimidin-2-yl)amino)cyclohexyl)cyclohexane-1-carboxamide]: < 500 nM; `O=C1CCC(Nc2ccc(C3CCN([C@H]4CC[C@H](C(=O)N[C@H]5CC[C@H](Nc6ncc(F)c(-c7cccc(N8CCOCC8=O)n7)n6)CC5)CC4)CC3)c(F)c2)C(=O)N1` (stereo partly drawn) [Compound 538, trans-(1r,4R)-4-(4-(4-((2,6-dioxopiperidin-3-yl)amino)-2-fluorophenyl)piperidin-1-yl)-N-((1r,4R)-4-((5-fluoro-4-(6-(3-oxomorpholino)pyridin-2-yl)pyrimidin-2-yl)amino)cyclohexyl)cyclohexane-1-carboxamide]: > 5000 nM.
Regarding `Cn1nc(N2CCC(=O)NC2=O)c2cc(F)c(C3CCN(CC4CCN(C(=O)[C@H]5CC[C@H](Nc6ncc(F)c(-c7cccc(-n8ccccc8=O)c7)n6)CC5)CC4)CC3)cc21` [Compound 540, trans-1-(5-fluoro-6-(1-((1-((1r,4r)-4-((5-fluoro-4-(3-(2-oxopyridin-1(2H)-yl)phenyl)pyrimidin-2-yl)amino)cyclohexane-1-carbonyl)piperidin-4-yl)methyl)piperidin-4-yl)-1-methyl-1H-indazol-3-yl)dihydropyrimidine-2,4(1H,3H)-dione], the DC50 was > 5000 nM.
Next, `O=C1CCC(Nc2ccc(N3CCN([C@H]4CC[C@H](C(=O)N[C@H]5CC[C@H](Nc6ncc(F)c(-c7cccc(N8CCCCC8)c7)n6)CC5)CC4)CC3)c(F)c2)C(=O)N1` (stereo partly drawn) [Compound 541, trans-4-(4-(4-((2,6-dioxopiperidin-3-yl)amino)-2-fluorophenyl)piperazin-1-yl)-N-(trans-4-((5-fluoro-4-(3-(piperidin-1-yl)phenyl)pyrimidin-2-yl)amino)cyclohexyl)cyclohexane-1-carboxamide]: < 500 nM.

A word on the DC50: it is the concentration at which degradation of the target reaches its halfway point.
